Assay results published in PubChem BioAssay (NCI).
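Interpolation was linear, between the two tested concentrations surrounding the appropriate level; five concentrations were tested over 48 hours in 96-well plates. At the GI50, growth is halved. TGI is the concentration that stops growth completely.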

Each compound was assayed on MDA-MB-468 breast (assay: DTP human tumour cell line panel, 48 h).

Compound	GI50 [nM]	TGI [nM]
O=C1/C(=C\C(Cl)=C/c2ccc([N+](=O)[O-])cc2)SC(=S)N1CCc1ccc(O)cc1	405	1740
O=C(Nc1ccccc1)Nc1cccc(-n2cc(-c3ccncc3)c(-c3ccc(O)c(Cl)c3)n2)c1	3220	12200
O=C(O)c1ccc2c(c1Nc1ccccc1)C(=O)c1ccccc1C2=O	31800	> 100000
COc1ccc(/C(C)=C(\c2ccc(Cl)cc2)c2ccc(OCCN3CCCC3)cc2)cc1F	3350	7180
Cc1c2c(nn1C(=O)c1nn(-c3ccc(Cl)cc3)cc1O)-c1ccccc1CC2	250	> 58200
COc1ccc(N(CC(=O)NCCC[Te]c2ccccc2)C(=O)CCSC2=C(C)C(=O)c3ccccc3C2=O)cc1	1670	3390
COc1ccc(/C=C2\CN(Cc3cn(CCCNc4ccnc5cc(Cl)ccc45)nn3)C/C(=C\c3ccc(OC)c(OC)c3)C2=O)cc1OC	772	2490
COc1ccc(-c2nn(-c3cccc(NC(=O)Nc4ccc(Cl)c(C(F)(F)F)c4)c3)cc2-c2ccncc2)cc1Cl	1630	6780
COc1ccc(-c2cnc3ccnn3c2-c2cc(OC)c(OC)c(OC)c2)cc1	2640	> 100000
NC1=C(Cl)C(=O)c2ccc(S(N)(=O)=O)cc2C1=O	181	486
N#CC(=S)Nc1ccc(Cl)c(Cl)c1	6100	52200
CN[C@]12CC3(C=CC(=O)C=C3)O[C@@]1(Cc1ccc(OC)cc1)N(C)C(=O)N2	1250	3500
c1cc(OCCN2CCCCCC2)ccc1CNc1ccc2nc(CCC3CCCCC3)[nH]c2c1	1550	4020
C=C1C(=O)O[C@H]2[C@H]1CC/C(COC(=O)CCCCCCCCC(=O)OC/C1=C/CC[C@@]3(C)O[C@H]3[C@H]3OC(=O)C(=C)[C@@H]3CC1)=C\CC[C@@]1(C)O[C@@H]21	2270	5150
CCN(CC)c1ccc2c(c1)Oc1nc(N)c(C#N)c(N)c1C2Sc1ccc(C)cc1 (configuration not stated)	1620	3140
Cc1cccc2c(N=Nc3ccc(S(N)(=O)=O)cc3)c(O)[nH]c12	> 25000	> 25000

Compound	GI50 [nM]	TGI [nM]
O=C(Nc1n[nH]c2nc(-c3ccco3)ccc12)C1CC1	> 25000	> 25000
O=C1OCc2c1cc(F)cc2[N+](=O)[O-]	> 100000	> 100000
C/C(CC(=O)NNc1ccc([N+](=O)[O-])cc1)=N\Nc1ccc([N+](=O)[O-])cc1	28100	> 100000
COc1cc(/C=C2\CN(C)C/C(=C\c3cc(OC)c(OC)c(OC)c3)C2=O)cc(OC)c1OC	266	849
COc1cc(/C=C/C(=O)c2ccc(Nc3ncnc4ccccc34)cc2)cc(OC)c1	2200	10700
CCCCCCCC/C=C/CCCCCCCC1=NC(C)(C)CN1C(C)C	1310	2700
CCCc1cc2cc(-n3nc(C)c4c3CC(C)(C)CC4=O)cc(NC3CCC(O)CC3)c2c(=O)[nH]1 (configuration not stated)	47.5	> 100000
O=C(O)C(CSC(c1ccccc1)(c1ccccc1)c1ccccc1)N=Cc1cccs1 (configuration not stated)	232	922
C=C1C(=O)O[C@H]2[C@H]1CC/C(Cn1cc(Cn3ccc4ccccc43)nn1)=C\CC[C@@]1(C)O[C@@H]21	717	2480
CCOC(=O)/C(=C/c1ccc([N+](=O)[O-])cc1)C(=O)c1ccccc1	2310	4600
O=C1C(=O)c2ccccc2-c2ccccc21	1700	3530
O=C1c2cc3c(cc2-c2c1c1ccc(Cl)cc1c(=O)n2C[C@H](O)[C@@H](O)[C@H](O)CO)OCO3	18.9	45.9
CCN(CC)CCOc1ccc(/C(=C(\C)Cc2ccc(OC)cc2)c2ccc(OC(=O)NCc3ccccc3)cc2)cc1	1900	3960
CN(C)CCCN(c1nc(C(Cl)(Cl)Cl)ns1)c1nc(C(Cl)(Cl)Cl)ns1	1660	3110
CN1CCC[C@@H]1CCO[C@](C)(c1ccccc1)c1ccc(Cl)cc1	1660	3510
